Assay results taken from PubChem BioAssay (NCI).
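Results reflect a 48-hour exposure of cells in 96-well plates to compound at five concentrations. TGI denotes the concentration required for complete inhibition of growth.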

Columns and labels:
Assay in all cases: growth of human tumour cells (NCI), 48 h
IGROV1 ovarian = tested on: IGROV1 ovarian
HL-60(TB) leukemia = tested on: HL-60(TB) leukemia
SK-MEL-2 melanoma = tested on: SK-MEL-2 melanoma
LOX IMVI melanoma = tested on: LOX IMVI melanoma
K-562 leukemia = tested on: K-562 leukemia
M14 melanoma = tested on: M14 melanoma
SN12C renal = tested on: SN12C renal
HCC-2998 colon = tested on: HCC-2998 colon
786-0 renal = tested on: 786-0 renal
CAKI-1 renal = tested on: CAKI-1 renal
A549 NSCLC = tested on: A549 NSCLC
MALME-3M melanoma = tested on: MALME-3M melanoma
OVCAR-8 ovarian = tested on: OVCAR-8 ovarian
COLO 205 colon = tested on: COLO 205 colon
HCT-116 colon = tested on: HCT-116 colon
DMS 273 small cell lung = tested on: DMS 273 small cell lung
XF 498 CNS = tested on: XF 498 CNS
HOP-62 NSCLC = tested on: HOP-62 NSCLC
HOP-92 NSCLC = tested on: HOP-92 NSCLC
CCRF-CEM leukemia = tested on: CCRF-CEM leukemia
NCI-H226 lung = tested on: NCI-H226 lung
HOP-18 NSCLC = tested on: HOP-18 NSCLC
ACHN renal = tested on: ACHN renal
KM12 colon = tested on: KM12 colon
HT29 colon = tested on: HT29 colon
SK-MEL-5 melanoma = tested on: SK-MEL-5 melanoma
SNB-19 CNS = tested on: SNB-19 CNS
TK-10 renal = tested on: TK-10 renal
SNB-78 CNS = tested on: SNB-78 CNS
UACC-62 melanoma = tested on: UACC-62 melanoma
DLD-1 colon = tested on: DLD-1 colon
SNB-75 CNS = tested on: SNB-75 CNS
NCI-H460 lung = tested on: NCI-H460 lung
LXFL 529 NSCLC = tested on: LXFL 529 NSCLC
OVCAR-3 ovarian = tested on: OVCAR-3 ovarian
RXF 393 renal = tested on: RXF 393 renal
OVCAR-5 ovarian = tested on: OVCAR-5 ovarian
UACC-257 melanoma = tested on: UACC-257 melanoma
M19-MEL melanoma = tested on: M19-MEL melanoma
MOLT-4 leukemia = tested on: MOLT-4 leukemia
KM20L2 colon = tested on: KM20L2 colon
RPMI-8226 leukemia = tested on: RPMI-8226 leukemia
SF-295 CNS = tested on: SF-295 CNS
OVCAR-4 ovarian = tested on: OVCAR-4 ovarian
U251 CNS = tested on: U251 CNS
UO-31 renal = tested on: UO-31 renal
SW-620 colon = tested on: SW-620 colon
EKVX NSCLC = tested on: EKVX NSCLC
HCT-15 colon = tested on: HCT-15 colon
DMS 114 small cell lung = tested on: DMS 114 small cell lung
SK-OV-3 ovarian = tested on: SK-OV-3 ovarian
SK-MEL-28 melanoma = tested on: SK-MEL-28 melanoma
A498 renal = tested on: A498 renal
SR leukemia = tested on: SR leukemia
NCI-H522 lung = tested on: NCI-H522 lung
NCI-H23 lung = tested on: NCI-H23 lung
SF-539 CNS = tested on: SF-539 CNS
SF-268 CNS = tested on: SF-268 CNS

SMILES: CN[C@H](C)[C@@H](OC)c1ccccc1
- TGI (IGROV1 ovarian): > 100 µM
- TGI (HL-60(TB) leukemia): > 100 µM
- TGI (SK-MEL-2 melanoma): > 100 µM
- TGI (LOX IMVI melanoma): > 100 µM
- TGI (K-562 leukemia): > 100 µM
- TGI (M14 melanoma): > 100 µM
- TGI (SN12C renal): > 100 µM
- TGI (HCC-2998 colon): > 100 µM
- TGI (786-0 renal): > 100 µM
- TGI (CAKI-1 renal): > 100 µM
- TGI (A549 NSCLC): > 100 µM
- TGI (MALME-3M melanoma): > 100 µM
- TGI (OVCAR-8 ovarian): > 100 µM
- TGI (COLO 205 colon): > 100 µM
- TGI (HCT-116 colon): > 100 µM
- TGI (DMS 273 small cell lung): > 100 µM
- TGI (XF 498 CNS): > 100 µM
- TGI (HOP-62 NSCLC): > 100 µM
- TGI (HOP-92 NSCLC): > 100 µM
- TGI (CCRF-CEM leukemia): > 100 µM
- TGI (NCI-H226 lung): > 100 µM
- TGI (HOP-18 NSCLC): > 100 µM
- TGI (ACHN renal): > 100 µM
- TGI (KM12 colon): > 100 µM
- TGI (HT29 colon): > 100 µM
- TGI (SK-MEL-5 melanoma): > 100 µM
- TGI (SNB-19 CNS): > 100 µM
- TGI (TK-10 renal): > 100 µM
- TGI (SNB-78 CNS): > 100 µM
- TGI (UACC-62 melanoma): > 100 µM
- TGI (DLD-1 colon): > 100 µM
- TGI (SNB-75 CNS): > 100 µM
- TGI (NCI-H460 lung): > 100 µM
- TGI (LXFL 529 NSCLC): > 100 µM
- TGI (OVCAR-3 ovarian): > 100 µM
- TGI (RXF 393 renal): > 100 µM
- TGI (OVCAR-5 ovarian): > 100 µM
- TGI (UACC-257 melanoma): > 100 µM
- TGI (M19-MEL melanoma): > 100 µM
- TGI (MOLT-4 leukemia): > 100 µM
- TGI (KM20L2 colon): > 100 µM
- TGI (RPMI-8226 leukemia): > 100 µM
- TGI (SF-295 CNS): > 100 µM
- TGI (OVCAR-4 ovarian): > 100 µM
- TGI (U251 CNS): > 100 µM
- TGI (UO-31 renal): > 100 µM
- TGI (SW-620 colon): > 100 µM
- TGI (EKVX NSCLC): > 100 µM
- TGI (HCT-15 colon): > 100 µM
- TGI (DMS 114 small cell lung): > 100 µM
- TGI (SK-OV-3 ovarian): > 100 µM
- TGI (SK-MEL-28 melanoma): > 100 µM

SMILES: Clc1ccc(C2=Nc3ccccc3SC(c3cccs3)C2)cc1 (centres undefined)
- TGI (IGROV1 ovarian): 28 µM
- TGI (LOX IMVI melanoma): 19.9 µM
- TGI (K-562 leukemia): 33.7 µM
- TGI (M14 melanoma): 30 µM
- TGI (A498 renal): 28.1 µM
- TGI (SN12C renal): 29.3 µM
- TGI (HCC-2998 colon): 30.9 µM
- TGI (786-0 renal): 29.8 µM
- TGI (CAKI-1 renal): 31.3 µM
- TGI (A549 NSCLC): 36 µM
- TGI (OVCAR-8 ovarian): 30.4 µM
- TGI (COLO 205 colon): 31.2 µM
- TGI (HCT-116 colon): 20 µM
- TGI (DMS 273 small cell lung): 27.1 µM
- TGI (XF 498 CNS): 29.8 µM
- TGI (HOP-62 NSCLC): 39.3 µM
- TGI (SR leukemia): 62.4 µM
- TGI (HOP-18 NSCLC): 35 µM
- TGI (ACHN renal): 28.7 µM
- TGI (KM12 colon): 22.5 µM
- TGI (HT29 colon): 27.8 µM
- TGI (SK-MEL-5 melanoma): 30.2 µM
- TGI (SNB-19 CNS): 30.3 µM
- TGI (TK-10 renal): 31.1 µM
- TGI (SNB-78 CNS): 85.2 µM
- TGI (NCI-H522 lung): 32 µM
- TGI (UACC-62 melanoma): 29.1 µM
- TGI (DLD-1 colon): 22 µM
- TGI (SNB-75 CNS): 34.1 µM
- TGI (NCI-H460 lung): 32 µM
- TGI (NCI-H23 lung): 27.2 µM
- TGI (LXFL 529 NSCLC): 31.3 µM
- TGI (OVCAR-3 ovarian): 24 µM
- TGI (RXF 393 renal): 22.7 µM
- TGI (OVCAR-5 ovarian): 27.6 µM
- TGI (SF-539 CNS): 32 µM
- TGI (UACC-257 melanoma): 29.4 µM
- TGI (M19-MEL melanoma): 28.8 µM
- TGI (MOLT-4 leukemia): > 100 µM
- TGI (KM20L2 colon): 30.2 µM
- TGI (RPMI-8226 leukemia): 7.26 µM
- TGI (SF-295 CNS): 28.2 µM
- TGI (OVCAR-4 ovarian): 27.2 µM
- TGI (U251 CNS): 24.1 µM
- TGI (UO-31 renal): 26.4 µM
- TGI (SW-620 colon): 25.8 µM
- TGI (EKVX NSCLC): 31.3 µM
- TGI (HCT-15 colon): 27.1 µM
- TGI (DMS 114 small cell lung): 31.2 µM
- TGI (SK-OV-3 ovarian): 30.5 µM
- TGI (SK-MEL-28 melanoma): 31.8 µM
- TGI (SF-268 CNS): 30.4 µM
